# US20150183802A1, “TRICYCLIC SULFONAMIDE DERIVATIVES” (NOVARTIS AG, priority 2013, published 2015)
# Molecular target: T1, hNav1.7 channels (Homo sapiens, UniProt Q15858)
# T1 construct: host or cells: HEK293
# Assay: hNav1.7 channel in vitro patch-clamp assay
# Assay type: cell-based
# Details: stable HEK293 cell line expressing hNav1.7; whole cell patch-clamp
# Procedure: hNav1.7 Channel In Vitro Patch-Clamp Assay
# Cells: Sable HEK293 (human embryonic kidney) cell line expressing hNav1.7 channels was used in the assay. The cell line was obtained from Millipore (Millipore Corporation, MA).
# Patch-clamp recordings: The recordings were performed on QPatch HTX (Sophion Bioscience, Denmark) and/or conventional patch-clamp (Axon Multiclamp 700B systems, Molecular Devices, CA) platforms at room temperature, using whole cell patch-clamp techniques. The composition of extracellular solution was (in mM): HEPES 5, NaCl 40, KCl 3, CaCl2 1, MgCl2 1, Choline Chloride 100. Adjust pH to 7.2 with 1N NaOH, osmolarity to 300-310 mOsm with sucrose. The composition of intracellular solution was (in mM): HEPES 10, NaCl 10, Na2ATP 1, MgCl2 2, KF 135, EGTA 10. Adjust pH to 7.2 with 1N NaOH, osmolarity to 290-300 mOsm with sucrose.
# For conventional patch-clamp, 35 mm culture dishes containing hNav1.7 cells were placed on the stage of an inverted microscope and continuously perfused with extracellular solution from a perfusion system (Biologic Rapid solution changer, RSC-160, ˜1 ml/min). […] The recordings were controlled by pCLAMP10 software. Test compounds were dissolved in 100% DMSO to make stock solutions for each test concentration, and then diluted into extracellular solution to achieve final concentration for testing. Final DMSO concentration was less than 0.3%. Two voltage protocols were used in hNav1.7 assay: for non-inactivated protocol, the sodium currents were elicited by a 2 ms pulse to −10 mV from a holding potential of −110 mV. For inactivated protocol, the holding potential was set at V1/2. The voltage was firstly stepped to −110 mV for 50 ms, then to −10 mV for 2 ms and then stepped back to holding potential. In both protocols the voltage command was given in every 10 s. Compound effect (% inhibition) was determined by difference in current amplitude before and after the application of test compounds. IC50 values were determined from concentration-response curves that were obtained with Hill fitting.
# For QPatch HTX assay, hNav1.7 cells grown to 50%-80% confluence were rinsed with DPBS and dissociated with Tryple (Invitrogen, 12605-010). The dissociated cells were then mixed with extracellular solution. After centrifuge, the cells were resuspended in extracellular solution and used in the QPatch experiment. The whole-cell protocols, voltage protocols and application protocols were established with QPatch Assay Software 3.4 (Sophion Bioscience, Denmark). Only the inactivated protocol was used in the QPatch assay.
# T1 sequence (Q15858 whole entry): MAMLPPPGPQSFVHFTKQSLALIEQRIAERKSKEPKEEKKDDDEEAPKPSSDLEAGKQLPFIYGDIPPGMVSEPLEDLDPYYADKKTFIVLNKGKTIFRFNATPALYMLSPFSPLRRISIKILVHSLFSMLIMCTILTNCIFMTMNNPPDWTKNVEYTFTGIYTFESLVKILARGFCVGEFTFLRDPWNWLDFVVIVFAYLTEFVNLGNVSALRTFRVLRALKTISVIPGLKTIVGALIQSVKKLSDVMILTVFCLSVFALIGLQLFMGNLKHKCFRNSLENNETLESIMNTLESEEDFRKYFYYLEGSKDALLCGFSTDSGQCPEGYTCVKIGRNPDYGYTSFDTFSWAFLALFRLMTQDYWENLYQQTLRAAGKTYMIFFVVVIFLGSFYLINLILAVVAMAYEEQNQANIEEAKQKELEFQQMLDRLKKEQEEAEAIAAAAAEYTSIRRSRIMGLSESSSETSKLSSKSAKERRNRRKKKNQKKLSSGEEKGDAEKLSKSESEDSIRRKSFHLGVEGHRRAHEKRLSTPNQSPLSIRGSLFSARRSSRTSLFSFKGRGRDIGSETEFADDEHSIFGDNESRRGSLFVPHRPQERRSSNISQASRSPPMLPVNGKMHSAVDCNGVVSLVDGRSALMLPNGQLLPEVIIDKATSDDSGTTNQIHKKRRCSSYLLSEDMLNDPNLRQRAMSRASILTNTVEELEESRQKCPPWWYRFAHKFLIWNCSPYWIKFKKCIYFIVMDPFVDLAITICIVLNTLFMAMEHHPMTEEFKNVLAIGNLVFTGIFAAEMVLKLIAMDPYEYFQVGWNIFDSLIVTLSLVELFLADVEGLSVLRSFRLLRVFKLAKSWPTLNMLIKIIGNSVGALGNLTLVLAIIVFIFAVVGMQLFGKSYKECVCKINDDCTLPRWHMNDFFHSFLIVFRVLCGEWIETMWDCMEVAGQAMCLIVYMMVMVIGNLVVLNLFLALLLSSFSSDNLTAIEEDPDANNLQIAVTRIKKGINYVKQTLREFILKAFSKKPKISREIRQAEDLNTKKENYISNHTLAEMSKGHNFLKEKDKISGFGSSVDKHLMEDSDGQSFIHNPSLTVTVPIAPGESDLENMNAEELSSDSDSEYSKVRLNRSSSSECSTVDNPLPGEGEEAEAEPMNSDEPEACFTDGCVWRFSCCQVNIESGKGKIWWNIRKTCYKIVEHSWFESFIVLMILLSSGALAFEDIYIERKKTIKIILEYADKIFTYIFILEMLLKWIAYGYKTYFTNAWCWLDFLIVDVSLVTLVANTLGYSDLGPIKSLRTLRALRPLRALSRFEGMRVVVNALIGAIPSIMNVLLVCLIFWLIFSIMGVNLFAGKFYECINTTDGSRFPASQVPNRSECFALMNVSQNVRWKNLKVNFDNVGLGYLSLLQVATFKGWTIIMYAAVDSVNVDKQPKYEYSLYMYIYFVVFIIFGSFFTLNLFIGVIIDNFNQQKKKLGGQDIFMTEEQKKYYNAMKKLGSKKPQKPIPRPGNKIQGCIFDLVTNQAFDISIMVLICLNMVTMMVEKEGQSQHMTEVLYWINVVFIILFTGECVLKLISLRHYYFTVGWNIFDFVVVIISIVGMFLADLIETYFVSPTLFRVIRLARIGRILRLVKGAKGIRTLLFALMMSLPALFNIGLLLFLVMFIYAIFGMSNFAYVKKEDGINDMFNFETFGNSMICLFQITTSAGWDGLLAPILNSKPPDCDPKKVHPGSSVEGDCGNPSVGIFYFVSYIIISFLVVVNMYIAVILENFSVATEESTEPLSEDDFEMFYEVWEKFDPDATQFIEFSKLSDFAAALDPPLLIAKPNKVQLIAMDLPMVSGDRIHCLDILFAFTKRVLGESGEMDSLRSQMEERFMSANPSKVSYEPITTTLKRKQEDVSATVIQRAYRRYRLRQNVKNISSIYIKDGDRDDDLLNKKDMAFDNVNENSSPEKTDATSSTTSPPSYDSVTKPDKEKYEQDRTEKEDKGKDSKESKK
row,SMILES,activity in the hNav1.7 patch-clamp assay (in words)
1,"CC(C)COc1ncc(N2C(=O)C3(CC3)c3cc4c(NS(=O)(=O)N5CCC5)noc4cc32)cc1Cl [N-(7′-(5-chloro-6-isobutoxypyridin-3-yl)-6′-oxo-6′,7′-dihydrospiro[cyclopropane-1,5′-isoxazolo[4,5-f]indol]-3′-yl)azetidine-1-sulfonamide]",did not show any activity

# Same assay, conditions: stable HEK293 cell line expressing hNav1.7; whole cell patch-clamp (QPatch HTX and/or conventional), room temperature; voltage protocol not given
row,SMILES,IC50
1,"CS(=O)(=O)Nc1noc2cc3c(cc12)C1(CC1)C(=O)N3c1ccc(Cl)c(Cl)c1 [Example 31, N-(7′-(3,4-dichlorophenyl)-6′-oxo-6′,7′-dihydrospiro[cyclopropane-1,5′-isoxazolo[4,5-f]indol]-3′-yl)methanesulfonamide]",800 nM
2,"CC(C)COc1c(F)cc(N2C(=O)C3(CC3)c3cc4c(NS(=O)(=O)C5CC5)noc4cc32)cc1Cl [Example 33, N-(7′-(3-chloro-5-fluoro-4-isobutoxyphenyl)-6′-oxo-6′,7′-dihydrospiro[cyclopropane-1,5′-isoxazolo[4,5-f]indol]-3′-yl)cyclopropanesulfonamide]",100 nM
3,"CC(C)COc1ncc(-n2cc(C(N)=O)c3cc4c(NS(=O)(=O)C5CC5)noc4cc32)cc1Cl [Example 49, 7-(5-chloro-6-isobutoxypyridin-3-yl)-3-(cyclopropanesulfonamido)-7H-isoxazolo[4,5-f]indole-5-carboxamide]",1180 nM
4,"CCC(C)Oc1ncc(N2C(=O)C3(CC3)c3cc4c(NS(=O)(=O)C5CC5)noc4cc32)cc1Cl (stereo not shown) [Example 24, N-(7′-(6-(sec-butoxy)-5-chloropyridin-3-yl)-6′-oxo-6′,7′-dihydrospiro[cyclopropane-1,5′-isoxazolo[4,5-f]indol]-3′-yl)cyclopropanesulfonamide]",70 nM
5,"CC(C)COc1ncc(-n2c(C(F)(F)F)nc3cc4c(NS(=O)(=O)C5CC5)noc4cc32)cc1Cl [Example 43, N-(7-(5-chloro-6-isobutoxypyridin-3-yl)-6-(trifluoromethyl)-7H-imidazo[4′,5′:4,5]benzo[1,2-d]isoxazol-3-yl)cyclopropanesulfonamide]",100 nM
6,"CC(C)COc1ncc(-c2nn(C)c3cc4c(NS(=O)(=O)C5CC5)noc4cc23)cc1Cl [Example 47, N-(7-(5-chloro-6-isobutoxypyridin-3-yl)-5-methyl-5H-isoxazolo[5,4-f]indazol-3-yl)cyclopropanesulfonamide]",400 nM
7,"CC(C)COc1ncc(N2C(=O)C3(CC3)c3cc4c(NS(=O)(=O)c5ccccc5)noc4cc32)cc1Cl [Example 6, N-(7′-(5-chloro-6-isobutoxypyridin-3-yl)-6′-oxo-6′,7′-dihydrospiro[cyclopropane-1,5′-isoxazolo[4,5-f]indol]-3′-yl)benzenesulfonamide]",3000 nM
8,"CC(C)COc1ncc(-n2cc(C(F)(F)F)c3cc4c(NS(=O)(=O)C5CC5)noc4cc32)cc1Cl [Example 41, N-(7-(5-chloro-6-isobutoxypyridin-3-yl)-5-(trifluoromethyl)-7H-isoxazolo[4,5-f]indol-3-yl)cyclopropanesulfonamide]",50 nM
9,"CC(C)COc1c(Cl)cc(N2C(=O)C3(CC3)c3cc4c(NS(C)(=O)=O)noc4cc32)cc1C#N [Example 32, N-(7′-(3-chloro-5-cyano-4-isobutoxyphenyl)-6′-oxo-6′,7′-dihydrospiro[cyclopropane-1,5′-isoxazolo[4,5-f]indol]-3′-yl)methanesulfonamide]",900 nM
10,"CS(=O)(=O)Nc1noc2cc3c(cc12)C1(CC1)C(=O)N3c1cnc(OCC2CCCCC2)c(Cl)c1 [Example 11, N-(7′-(5-chloro-6-(cyclohexylmethoxy)pyridin-3-yl)-6′-oxo-6′,7′-dihydrospiro[cyclopropane-1,5′-isoxazolo[4,5-f]indol]-3′-yl)methanesulfonamide]",100 nM
11,"Cc1cc2cc3c(NS(=O)(=O)C4CC4)noc3cc2c(-c2cnc(OCC(C)C)c(Cl)c2)n1 [Example 61, N-(8-(5-chloro-6-isobutoxypyridin-3-yl)-6-methylisoxazolo[4,5-g]isoquinolin-3-yl)cyclopropanesulfonamide]",510 nM
12,"CC(C)COc1ncc(-c2nccc3cc4c(NS(=O)(=O)N(C)C)noc4cc23)cc1Cl [Example 53, N-(8-(5-chloro-6-isobutoxypyridin-3-yl)isoxazolo[4,5-g]isoquinolin-3-yl)N—N-dimethylsulfamide]",1070 nM
13,"CC(C)COc1ncc(N2CCOc3cc4c(NS(C)(=O)=O)noc4cc32)cc1Cl [Example 63, N-(8-(5-chloro-6-isobutoxypyridin-3-yl)-7,8-dihydro-6H-isoxazolo[5′,4′:4,5]benzo[1,2-b][1,4]oxazin-3-yl)methanesulfonamide]",530 nM
14,"CC(C)COc1ncc(N2C(=O)C3(CC3)c3cc4c(NS(=O)(=O)C5CC5)noc4cc32)cc1F [Example 22, N-(7′-(5-fluoro-6-isobutoxypyridin-3-yl)-6′-oxo-6′,7′-dihydrospiro[cyclopropane-1,5′-isoxazolo[4,5-f]indol]-3′-yl)cyclopropanesulfonamide]",300 nM
15,"O=C1N(c2cnc(OC3CCC3)c(Cl)c2)c2cc3onc(NS(=O)(=O)C4CC4)c3cc2C12CC2 [Example 21, N-(7′-(5-chloro-6-cyclobutoxypyridin-3-yl)-6′-oxo-6′,7′-dihydrospiro[cyclopropane-1,5′-isoxazolo[4,5-f]indol]-3′-yl)cyclopropanesulfonamide]",150 nM
16,"O=C1N(c2cnc(OC(F)F)c(Cl)c2)c2cc3onc(NS(=O)(=O)C4CC4)c3cc2C12CC2 [Example 30, N-(7′-(5-chloro-6-(difluoromethoxy)pyridin-3-yl)-6′-oxo-6′,7′-dihydrospiro[cyclopropane-1,5′-isoxazolo[4,5-f]indol]-3′-yl)cyclopropanesulfonamide]",630 nM
17,"CC(C)COc1ncc(-c2nccc3cc4c(NS(=O)(=O)C5CC5)noc4cc23)cc1Cl [Example 50, N-(8-(5-chloro-6-isobutoxypyridin-3-yl)isoxazolo[4,5-g]isoquinolin-3-yl)cyclopropanesulfonamide]",110 nM
18,"CC(C)COc1ncc(N2C(=O)C3(CC3)c3cc4c(NS(=O)(=O)C5CC5)noc4cc32)cc1Cl [Example 2, N-(7′-(5-chloro-6-isobutoxypyridin-3-yl)-6′-oxo-6′,7′-dihydrospiro[cyclopropane-1,5′-isoxazolo[4,5-f]indol]-3′-yl)cyclopropanesulfonamide]",80 nM
19,"C[C@H](Oc1ncc(N2C(=O)C3(CC3)c3cc4c(NS(=O)(=O)C5CC5)noc4cc32)cc1Cl)c1ccc(F)cc1 [Example 18, (S)—N-(7′-(5-chloro-6-(1-(4-fluorophenyl)ethoxy)pyridin-3-yl)-6′-oxo-6′,7′-dihydrospiro[cyclopropane-1,5′-isoxazolo[4,5-f]indol]-3′-yl)cyclopropanesulfonamide]",100 nM
20,"CC(C)COc1ncc(N2C(=O)C3(CC3)c3cc4c(NS(=O)(=O)C(C)C)noc4cc32)cc1Cl [Example 3, N-(7′-(5-chloro-6-isobutoxypyridin-3-yl)-6′-oxo-6′,7′-dihydrospiro[cyclopropane-1,5′-isoxazolo[4,5-f]indol]-3′-yl)propane-2-sulfonamide]",100 nM
21,"CC1CCC(COc2ncc(N3C(=O)C4(CC4)c4cc5c(NS(=O)(=O)C6CC6)noc5cc43)cc2Cl)CC1 (stereo not shown) [Example 23, N-(7′-(5-chloro-6-((4-methylcyclohexyl)methoxy)pyridin-3-yl)-6′-oxo-6′,7′-dihydrospiro[cyclopropane-1,5′-isoxazolo[4,5-f]indol]-3′-yl)cyclopropanesulfonamide]",200 nM
22,"CC1(COc2ncc(N3C(=O)C4(CC4)c4cc5c(NS(=O)(=O)C6CC6)noc5cc43)cc2Cl)CC1 [Example 16, N-(7′-(5-chloro-6-((1-methylcyclopropyl)methoxy)pyridin-3-yl)-6′-oxo-6′,7′-dihydrospiro[cyclopropane-1,5′-isoxazolo[4,5-f]indol]-3′-yl)cyclopropanesulfonamide]",60 nM
23,"CC(C)COc1ncc(-n2c(=O)n(C)c3cc4c(NS(C)(=O)=O)noc4cc32)cc1Cl [Example 34, N-(7-(5-chloro-6-isobutoxypyridin-3-yl)-5-methyl-6-oxo-6,7-dihydro-5H-imidazo[4′,5′:4,5]benzo[1,2-d]isoxazol-3-yl)methanesulfonamide]",100 nM
24,"CC(C)COc1ncc(-n2cc(C#N)c3cc4c(NS(=O)(=O)C5CC5)noc4cc32)cc1Cl [Example 48, N-(7-(5-chloro-6-isobutoxypyridin-3-yl)-5-cyano-7H-isoxazolo[4,54]indol-3-yl)cyclopropanesulfonamide]",220 nM
